Results: US20230322812A1, “CRYSTALLINE FORM OF HETEROBICYCLIC COMPOUND” (TAIHO PHARMACEUTICAL CO., LTD., priority 2020, published 2023)

How the values were obtained:
[1] = Oral absorbability in rats (plasma concentration of compound 1); assay type: in vivo; conditions: 30 mg/kg, male Sprague Dawley rats
Experimental: Crystal I of compound 1 was suspended in a 0.5% HPMC aqueous solution, and orally administered to male Sprague Dawley rats which were supplied from Charles River Laboratories Japan, Inc. in a dosage of 30 mg/kg. After 1, 2, 4, 6, 8, and 24 hours from administration, blood of each rat was collected from the left jugular vein, and the concentration of compound 1 in plasma was measured.

[2] = Dynamic vapor sorption (DVS) system analysis; assay type: physicochemical
Experimental: Dynamic vapor sorption (DVS) system analysis was performed under the following conditions.
Apparatus: VTI SA+(manufactured by TA Instruments Inc.)
Drying temperature: 60° C.
Drying equilibrium: Within the range not exceeding 300 minutes, the sample was confirmed not to decrease by 0.01 wt % in 5 minutes
Measurement temperature: 25° C.
Humidification equilibrium: Within the range not exceeding 120 minutes, the sample was confirmed not to increase by 0.01 wt % in 5 minutes
Relative Humidity Program: An increase by 5% RH from 5% RH to 95% RH and a decrease by 5% RH from 95% RH to 5% RH
A dedicated quartz holder was filled with 10 to 15 mg of crystal I of compound 1, and the weight of each sample at each humidity was continuously measured and recorded under the conditions described above. The device and data processing were handled in accordance with the method and procedure instructed for each device.

[3] = Solid stability of crystal I (storage, chemical purity by HPLC); assay type: physicochemical; conditions: stored at 40° C. (humidity not controlled), 40° C. (humidity 75%) and 60° C. (humidity not controlled) for 4 weeks, all conditions
Experimental: (iii) High-Performance Liquid Chromatography
Measurement by high-performance liquid chromatography was performed under the following conditions.
Mobile Phase A: 10 mM phos. Buffer (pH6.3)/acetonitrile (95:5)
Mobile Phase B: acetonitrile
Column: Gemini C18 (4.6x 150 mm, 3 μm)/Phenomenex
(§1) Crystal I of compound 1 was stored at 40° C. (humidity is not controlled), 40° C. (humidity 75%), and 60° C. (humidity is not controlled) for 4 weeks. Thereafter, the chemical purity was measured by high-performance liquid chromatography, and the change was 0.5% or less under all conditions.

[4] = Differential scanning calorimetry (phase transition on heating); assay type: physicochemical; conditions: crystal I of Example 1; temperature increased
Experimental: (ii) Differential Scanning calorimetry Measurement (DSC Measurement)
DSC measurement was performed under the following conditions.
Device: METTLER TOLEDO: DSC1 STAR System
Sample Container: made of aluminum
Temperature Range: 25 to 400° C.
Temperature Increase Rate: 10° C./min
Atmospheric Gas: Nitrogen
Nitrogen Gas Flow: 30 ml/min
as §1

SMILES: Cn1nc2ccc(-c3c[nH]c4nc(N5[C@H]6CC[C@@H]5[C@H](N)C6)n(C)c(=O)c34)c(Cl)c2c1Cl (single isomer, unassigned) [Crystal I]
- oral absorbability (plasma concentration reached) ([1]; 1-24 hours after administration): achieved a sufficient concentration that provides a medicinal effect
- Cmax ([1]; rat, suspended in 0.5% HPMC aqueous solution, plasma): 3.5 µM
- AUC(0-t) ([1]; rat, suspended in 0.5% HPMC aqueous solution, plasma, read-out: AUC0-24): 37 µM·h
- change in weight due to changes in humidity (DVS) ([2]; 25° C., 5% RH to 95% RH and back to 5% RH): no changes in weight
- powder X-ray crystal analysis before and after moisture adsorption and desorption ([2]; before and after DVS moisture adsorption and desorption): did not change
- change of chemical purity after storage [3]: ≤ 0.5%
- phase transition peak in DSC measurement [4]: no peak indicating a phase transition
